We go through 102 molecules from PubChem BioAssay AID488890 (Southern Research Specialized Biocontainment Screening …, 2010).

The structures appear in SMILES notation. Results filed as inconclusive are left out. Activity calls are given as the source filed them. The rule behind the calls is not given here.

The experiment relates to Mycobacterium tuberculosis non-replicating, growth inhibition. Put plainly: growth inhibition of non-replicating M. tuberculosis (AID 488890).
For orientation: IC50 means the concentration at which inhibition is half-maximal. For `CCN(CC)C(=O)c1sc2nc(-c3ccccc3)ccc2c1N`, the IC50 was 14.7 µM (inactive).

For `CC1(C(=O)NC(=S)NNC(=O)c2ccncc2)CCCCC1`, the IC50 is 0.94 µM.

On to `C/C(=N\NC(=O)c1cccc(Br)c1)c1ccccn1`, for which the half-inhibitory concentration (IC50) was 3.65 µM.

Turning to `Cc1cc2nc(CSc3ccc(Cl)cc3)cc(=O)n2[nH]1`, the IC50 was 14.8 µM (inactive).

Take `C#CCSc1nnc(-c2ccc(C)cc2)o1`: the IC50 was 0.82 µM.

With `CCCNC(=O)COC(=O)c1cc2c(=O)n3ccccc3nc2s1`, the IC50 is 23.6 µM (inactive).

Consider `O=C(Nc1cccc(NC(=O)c2cccs2)c1)c1ccc([N+](=O)[O-])o1`, for which the IC50 is 5.43 µM.

In the case of `CCCCCC(=O)N/N=C(\C)c1ccccn1`, the IC50 is 9.55 µM.

As for `CN(C)CC/C=C1/c2ccc(F)cc2Sc2ccc(Cl)cc21`, the IC50 is 8.11 µM.

For `COc1cccc(C(=O)OCC(=O)c2ccc(Br)s2)c1OC`, the IC50 was 9.02 µM.

Consider `O=C(O)CCCCCN1C(=O)/C(=C\c2ccncc2)SC1=S`, for which the IC50 is 11.2 µM (inactive).

Turning to `COCc1cc(=O)[nH]c(Nc2nc3ccccc3o2)n1`, the IC50 is 1.58 µM.

`COCCCNC(=O)COC(=O)c1ccc(-c2nc3ccccc3s2)s1`: the IC50 was 5.37 µM.

For `COc1cccc(-c2nnc(NC(=O)c3cccc(F)c3)o2)c1`, the IC50 was 11.1 µM (inactive).

Consider `c1ccc2[nH]c(NC3=NCCC3)nc2c1`, for which the IC50 is 19.2 µM (inactive).

With `O=[N+]([O-])c1ncccc1Oc1nc(-c2cccnc2)nc2ccccc12`, the IC50 was 0.73 µM.

Regarding `CCCCCCNC(=O)c1ccc(Br)o1`, the IC50 was below 0.1 µM.

As for `CCCCn1c(=O)c(C(=O)Nc2ncccc2C)c(O)c2ccccc21`, the IC50 was 3.81 µM.

In the case of `O=C(Nc1ccn(Cc2ccccc2)n1)c1ccc(F)cc1`, the IC50 was 14.8 µM (inactive).

As to `CCC(C)(C)c1ccc(OCC(=O)Nc2ccncc2)cc1`, the IC50 was 4.38 µM.

On to `COc1ccc(C(=O)COC(=O)c2ccccc2O)c(OC)c1`, for which the IC50 is 1.46 µM.

`O=C1Nc2ccccc2/C1=C/C(=O)c1cccs1`: the IC50 is 13.4 µM (inactive).

In the case of `CCOc1ccc(OCc2ccc(C(=O)OCc3ccccn3)o2)cc1`, the IC50 was 8.49 µM.

As to `O=C(OCc1ccccn1)c1ccc(COc2ccccc2Cl)o1`, the IC50 is 3.14 µM.

In the case of `CN1CCN(c2c(F)cc3c(=O)c(C(=O)O)cn4c3c2SCC4)CC1`, the IC50 is 16.8 µM (inactive).

Turning to `FC(F)(F)c1nc(SCc2ccc(Cl)cc2Cl)n[nH]1`, the IC50 was 4.69 µM.

For the molecule `Nc1ccccc1C(=O)NNC1=C(C(=O)C(F)(F)F)CCC1`, the IC50 was 14.7 µM (inactive).

Consider `O=C1CCC/C(=N/Nc2ccc(Cl)cc2)C1`, for which the IC50 was 3.72 µM.

Take `Cc1cccc(NCc2ccc([N+](=O)[O-])s2)c1`: the IC50 is 22.2 µM (inactive).

As for `Cc1ccc(OC(=O)CCS(=O)(=O)c2ccc(C)cc2)cc1`, the IC50 is 11.8 µM (inactive).

As to `COc1cccc(-c2nnc(NC(=O)c3ccc4ncsc4c3)o2)c1`, the IC50 is 9.06 µM.

In the case of `O=C(c1ccccc1)n1c(=O)c(F)cn(COCCBr)c1=O`, the IC50 is 21 µM (inactive).

With `O=C(NNC(=O)c1ccccc1F)c1ccc(-c2ccc(Cl)cc2)o1`, the IC50 was 1.53 µM.

For `CC(C)(c1ccccc1)c1ccc(OCC(O)CNC2CCN(Cc3ccccc3)CC2)cc1` (configuration not stated), the IC50 is 5.9 µM.

Take `O=C(Nc1ccccn1)c1ccc([N+](=O)[O-])o1`: the IC50 was 0.77 µM.

Turning to `COc1cccc(OC(=O)c2cc3ccccc3oc2=O)c1`, the IC50 is 14.2 µM (inactive).

Turning to `O=C1NC(=O)C(=Cc2ccc(Oc3ccc([N+](=O)[O-])cc3)cc2)C(=O)N1`, the IC50 is 16.5 µM (inactive).

In the case of `Cc1cc(N/N=C/c2ccccc2O)c2ccccc2n1`, the IC50 is 10.1 µM (inactive).

In the case of `O=C(Nc1ccc(Cl)cc1Cl)c1cccc(N2C(=O)C=CC2=O)c1`, the IC50 was 11.6 µM (inactive).

In the case of `CCOC(=O)Nc1cccc(OCC(=O)Nc2ccc(OC)cc2OC)c1`, the IC50 is 16.5 µM (inactive).

With `C=C(C)C1CC=C(C)/C(=N/NC(=O)CNc2ccc(OCC)cc2)C1` (configuration not stated), the IC50 is > 25 µM (inactive).

Regarding `N/N=C(/Cc1nc2ccccc2[nH]1)c1ccc([N+](=O)[O-])cc1`, the IC50 was 1.06 µM.

Regarding `COc1ccc(O)c(C(=O)CC(=O)c2ccc(F)cc2)c1`, the IC50 was 17.2 µM (inactive).

As to `CCOC(=O)CN(C#N)c1nc(N(C)C)nc(N(C)C)n1`, the IC50 was 8.42 µM.

For the molecule `CCOC(=O)c1c(NC(C)=O)sc2c(OCC(O)CNC(C)(C)C)c(Br)ccc12` (configuration not stated), the IC50 was 4.44 µM.

With `COC(=O)c1cc2c(ccc3ccccc32)oc1=O`, the IC50 was 6.24 µM.

For `CSc1ccc(CNc2ncc(-c3cccc([N+](=O)[O-])c3)n2C)cc1`, the IC50 was 21.1 µM (inactive).

`C/C(O)=C\c1nc2ccccc2oc1=O`: the IC50 is 3.18 µM.

For `O=C1OC(/C=C/c2ccccc2)=NC/1=C\c1cccnc1`, the IC50 was 13 µM (inactive).

Turning to `CCOC(=O)COc1ccc(C(=O)c2ccccc2)c(O)c1`, the IC50 is 1.24 µM.

As to `COc1cccc(OCC(=O)NNC(=O)C(=O)Nc2cccc(C)c2)c1`, the IC50 is 6.72 µM.

In the case of `O=C(COc1ccc(-c2ccccc2)cc1)Nc1cccnc1`, the IC50 was 3.28 µM.

Regarding `O=C(Nc1cccc(Cl)c1)Nc1nnc(-c2ccncc2)s1`, the IC50 is 2.69 µM.

Turning to `CN1CCC(O)(c2ccccc2)C(C(=O)c2ccccc2)C1` (configuration not stated), the IC50 was 4.85 µM.

For `O=C(Nc1nccs1)c1ccc(-c2ccc(Cl)cc2)o1`, the IC50 was 21.3 µM (inactive).

As for `CC1(C)C[C@H]2C=C(C=O)[C@]3(C=O)C[C@]3(C)[C@H]2C1`, the IC50 was 2.94 µM.

For `CC(C)Cc1nnc(NC(=O)CCS(=O)(=O)c2ccc(Cl)cc2)s1`, the IC50 was 5.37 µM.

Take `O=C(Nc1nc2ccccc2[nH]1)c1ccc(F)cc1`: the IC50 is 13 µM (inactive).

For the molecule `N/C(=N\OC(=O)CC1CCCCC1)c1ccncc1`, the IC50 is 6.38 µM.

Take `Cc1ccc(CC(=O)Nc2ccc(Cl)cn2)cc1`: the IC50 was 1.06 µM.

With `O=[N+]([O-])c1ccc(N2CCN(Cc3ccc([N+](=O)[O-])o3)CC2)cc1`, the IC50 was below 0.1 µM.

Consider `CCN1CSC(=S)N(Cc2ccc(OC)cc2)C1`, for which the IC50 is 18.5 µM (inactive).

Take `Oc1c(C(c2ccccc2Cl)N2CCCC2)ccc2cccnc12` (configuration not stated): the IC50 is 4.68 µM.

Take `O=C(COC(=O)c1cc(Br)ccc1O)Nc1ccc2c(c1)OCO2`: the IC50 was 7.79 µM.

As for `CC(Oc1ccc2ccccc2c1)C(=O)NNC(=S)NC(=O)c1ccco1` (configuration not stated), the IC50 is 22.1 µM (inactive).

Consider `CN(C)CCC(=O)N1c2ccccc2Sc2ccc(Cl)cc21`, for which the IC50 is 21 µM (inactive).

Regarding `CCCCCCCNC(=O)C1(CC2CC(c3cccc(Br)c3)=NO2)CCNCC1` (configuration not stated), the IC50 was 13.7 µM (inactive).

For the molecule `O=c1c2c(nc3c(-c4ccc(Cl)cc4)c[nH]n13)CCC2`, the IC50 was 4.22 µM.

`C/C(=N\NC(=O)CCc1ccccc1)C1C(=O)c2ccccc2C1=O`: the IC50 was 0.25 µM.

On to `CCCNC(=O)NC(=O)COc1ccc(-c2ccc(C#N)cc2)cc1`, for which the IC50 is 2.54 µM.

For the molecule `O=C(NC1CCCC1)c1cc(-c2cccs2)on1`, the IC50 was 5.66 µM.

As for `O=C(COC(=O)c1ccccc1Cl)NCCC1=CCCCC1`, the IC50 is 14.1 µM (inactive).

Take `Cc1ccccc1NC(=O)C1COc2ccccc2O1` (configuration not stated): the IC50 is 9.25 µM.

Consider `O=C(N/N=C/c1ccc([N+](=O)[O-])o1)c1cc2ccccc2o1`, for which the IC50 is 0.46 µM.

For the molecule `O=C(Nc1nc(-c2ccccn2)cs1)c1ccco1`, the IC50 is 6.64 µM.

In the case of `C=CCn1c(NC(=O)c2ccccc2)nc2ccccc21`, the IC50 was 21.6 µM (inactive).

With `O=C(COC(=O)CCc1c[nH]c2ccccc12)NCc1ccc(Cl)cc1`, the IC50 was 7.82 µM.

On to `O=C1CCC(=O)N1CNc1ccc(Oc2ccccc2)cc1`, for which the IC50 was 2.02 µM.

As to `O=C(NCc1cccs1)c1ccc([N+](=O)[O-])cc1`, the IC50 was 2.84 µM.

Regarding `O=C(N/N=C/c1cccc2cccnc12)[C@H]1C[C@@H]1c1ccccc1`, the IC50 was 13.1 µM (inactive).

For the molecule `COc1ccc(/C=C/c2cc(-c3ccc(C)cc3)o[n+]2C)cc1`, the IC50 is 4.7 µM.

As for `Cc1cccc(NC(=O)c2ccc([N+](=O)[O-])o2)c1C`, the IC50 was 6.39 µM.

Turning to `CN(C)C=C1C(=O)N(C2CCCCC2)C(=O)N(C2CCCCC2)C1=O`, the IC50 was 1.57 µM.

In the case of `O=C(COC(=O)c1cccc([N+](=O)[O-])c1)NCc1cccs1`, the IC50 is 25.7 µM (inactive).

As to `Cc1cc(N2CCC(C)CC2)nc(-n2nc(C)cc2C)n1`, the IC50 was 0.83 µM.

With `CC(=O)Oc1ccc(/C=C2\N=C(C3CCCCC3)OC2=O)cc1`, the IC50 was 9.08 µM.

With `CC(C)c1ccc(OCC(=O)NCc2ccccc2)cc1`, the IC50 is 19.2 µM (inactive).

Take `O=C(NCc1ccc(F)cc1)c1cnccn1`: the IC50 is 3.86 µM.

Take `NCCNc1ccc([N+](=O)[O-])c2cccnc12`: the IC50 is 4.89 µM.

For `COc1ccc(CN2CCC(C(=O)Nc3ccc(Oc4cccnc4)cc3)CC2)c(C)c1C`, the IC50 was 7.54 µM.

As to `Fc1ccc(-c2nn(-c3ccccc3)cc2CNCc2ccccc2)cc1`, the IC50 is 8.72 µM.

Take `CN(C)CCNc1c2c(c(C#N)c3nc4ccccc4n13)CCCC2`: the IC50 is 14.5 µM (inactive).

`CC(C)(C)NCc1cc(Br)ccc1OC1CCCC1`: the half-maximal inhibitory concentration (IC50) is 8.01 µM.

Regarding `Cc1cc2oc3ccc(NCCCn4ccnc4)cc3c(=O)c2cc1C`, the IC50 is 20.9 µM (inactive).

For `CC(C)(C)c1ccc(OCCC(=O)OCC(=O)NC2CC2)cc1`, the IC50 is 23.6 µM (inactive).

Take `CN1/C(=C\C=N\NC(=O)c2cccnc2)C(C)(C)c2ccccc21`: the IC50 is 46.5 µM (inactive).

In the case of `Cc1ccc(CCC(=O)Nc2ccccc2F)s1`, the IC50 was 26.2 µM (inactive).

For the molecule `CCCn1c(CNc2ccccc2O)nc2ccccc21`, the IC50 was 3.3 µM.

`O=C(COc1ccc2ccccc2c1)N/N=C/c1ccccn1`: the IC50 was 6.72 µM.

Take `O=C1CC(N2CCC(c3nc4ccccc4o3)CC2)C(=O)N1` (configuration not stated): the IC50 was 16.3 µM (inactive).

As to `Cc1onc(-c2ccccc2)c1C(=O)Nc1nnc(COc2ccc(Cl)cc2)s1`, the IC50 was 8.2 µM.

Turning to `O=C1C=CC(O)(c2cc(=O)c3c(O)cc(O)cc3o2)C=C1`, the IC50 was 2.61 µM.
